The target of test [1] is T1, EGFR(L858R/T790M) (Homo sapiens, UniProt P00533, L858R/T790M).
T1 construct: purchased from Carna (GST-a.a. 669-1210)
Briefly: EGFR biochemical assay (HTRF), IC50 determinations. The method in brief: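 HTRF kinase reaction with biotin-TK peptide at room temperature, quenched with EDTA at 60 min and detected with PT66K/SAXL after 1 h. Without preincubation, enzyme starts the reaction with compound, ATP and peptide present. With preincubation, compound, enzyme and peptide sit at room temperature for a set time before ATP is added.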

The target of test [2] is human EGFR WT (NIH/3T3 cells, EGF-induced) (Homo sapiens, UniProt P00533). Briefly: EGFR target modulation in engineered NIH/3T3 cell lines (phospho-EGFR Y1068 AlphaLISA), EGFR WT. The class given is cell-based. The conditions noted are these: engineered NIH/3T3 cells, read-out: NIH3T3 IC50 (μM) EGFR (WT). The method in brief:
(§1)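 Read-out is phospho-Y1068 AlphaLISA on cell lysates, with anti-total EGFR at 1 nM final equilibrated 1 h at room temperature. Cells were dosed 3 h with a 12-point 1:3 series starting from a 10 μM stock. Only the WT line received 50 ng/ml EGF for 5 min.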

The target of test [3] is human EGFR L858R (NIH/3T3 cells) (Homo sapiens, UniProt P00533, L858R). Put plainly: EGFR target modulation in engineered NIH/3T3 cell lines (phospho-EGFR Y1068 AlphaLISA), EGFR L858R. The class given is cell-based. Conditions: engineered NIH/3T3 cells, read-out: NIH3T3 IC50 (μM) EGFR (L858R). The method in brief:
as §1
Background: Alpha assays give light when donor and acceptor beads are brought close together.

In test [4] the target is human EGFR L858R/T790M (NIH/3T3 cells) (Homo sapiens, UniProt P00533, L858R/T790M). Briefly: EGFR target modulation in engineered NIH/3T3 cell lines (phospho-EGFR Y1068 AlphaLISA), EGFR L858R/T790M. The class given is cell-based. The conditions noted are these: engineered NIH/3T3 cells, read-out: NIH3T3 IC50 (μM) EGFR (L858R/T790M). The method in brief: as §1
human EGFR L858R/T790M (NIH/3T3 cells), sequence (P00533 25-1210 T790M/L858R): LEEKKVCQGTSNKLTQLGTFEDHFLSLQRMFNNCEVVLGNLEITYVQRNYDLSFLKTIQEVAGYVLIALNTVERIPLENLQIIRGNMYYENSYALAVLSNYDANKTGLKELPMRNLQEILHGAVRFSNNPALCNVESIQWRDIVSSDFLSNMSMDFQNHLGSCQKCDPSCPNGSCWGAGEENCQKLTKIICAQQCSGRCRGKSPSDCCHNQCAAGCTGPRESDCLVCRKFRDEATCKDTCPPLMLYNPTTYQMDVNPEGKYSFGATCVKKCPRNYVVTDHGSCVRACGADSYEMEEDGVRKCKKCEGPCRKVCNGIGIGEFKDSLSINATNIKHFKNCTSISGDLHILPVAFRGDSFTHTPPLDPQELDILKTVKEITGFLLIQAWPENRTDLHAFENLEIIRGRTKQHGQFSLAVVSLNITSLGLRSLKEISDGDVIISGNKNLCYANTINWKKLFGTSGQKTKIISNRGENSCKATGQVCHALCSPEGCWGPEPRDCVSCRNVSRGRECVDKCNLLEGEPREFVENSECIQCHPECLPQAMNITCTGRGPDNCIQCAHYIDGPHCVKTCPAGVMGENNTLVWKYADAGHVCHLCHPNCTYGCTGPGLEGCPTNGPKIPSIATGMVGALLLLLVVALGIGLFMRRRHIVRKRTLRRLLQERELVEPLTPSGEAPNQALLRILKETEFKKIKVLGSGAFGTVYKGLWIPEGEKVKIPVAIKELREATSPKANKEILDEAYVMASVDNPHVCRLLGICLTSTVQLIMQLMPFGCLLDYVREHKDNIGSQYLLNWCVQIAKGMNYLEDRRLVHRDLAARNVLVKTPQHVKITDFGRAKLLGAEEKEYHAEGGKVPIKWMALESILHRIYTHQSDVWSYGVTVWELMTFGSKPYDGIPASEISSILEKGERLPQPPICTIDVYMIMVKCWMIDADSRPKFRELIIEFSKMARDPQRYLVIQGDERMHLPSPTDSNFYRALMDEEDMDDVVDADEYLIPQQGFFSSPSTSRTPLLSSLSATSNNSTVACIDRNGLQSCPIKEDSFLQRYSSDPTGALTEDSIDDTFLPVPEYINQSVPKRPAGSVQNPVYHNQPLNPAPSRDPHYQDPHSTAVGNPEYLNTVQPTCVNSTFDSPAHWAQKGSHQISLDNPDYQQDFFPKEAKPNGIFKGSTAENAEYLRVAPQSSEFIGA
In test [5] the target is H1975 (EGFR L858/T790M) (Homo sapiens, UniProt P00533, L858R/T790M). Put plainly: EGFR target modulation in H1975 cell line (phospho-EGFR Y1173 ELISA). The format is cell-based. On the procedure:
(§2) EGFR Target Modulation in H1975, H3255 and HCC827 Cell Lines Tissue Culture. Cells were maintained in 10% FBS/RPMI supplemented with 100 μg/ml Penicillin/Streptomycin (Hyclone #SH30236.01). […] The cells were allowed to incubate overnight in a 37° C., 5% CO2 humidified tissue culture incubator. […] The serial diluted compounds were transferred to the plate containing cells by using a 50 nl Pin Head device (Perkin Elmer) and the cells were placed back in the incubator for 3 hours. Phospho-EGFR ([…]) Target Modulation Assay. The media was reduced to 20 ul using a Bio-Tek ELx 405 SelectTM plate washer. […] The plates were shaken at 4° C. for 20 minutes. An aliquot of 25 ul from each well was transferred to pEGFR(Y1173) ELISA plates for analysis. Phospho-EGFR ([…]) ELISA. Solid white high-binding ELISA plates (Greiner #781074) were coated with 5 ug/ml anti-EGFR capture antibody (R&D Systems #AF231) overnight in 50 mM carbonate/bicarbonate pH 9.5 buffer. Plates were blocked with 1% BSA (Sigma #A7030) in PBS for 1 hour at room temperature. Wash steps were carried out with a Bio-Tek ELx405 SelectTM using 4 cycles of 100 ul TBS-T (20 mM Tris, 137 mM NaCl, 0.05% Tween-20) per well. […] Lysis was allowed to occur for 20 minutes on ice. A 25 ul aliquot was added to each well of the blocked ELISA plate and incubated overnight at 4° C. with gentle shaking. […] After washing, 1:2,000 anti-rabbit-HRP (Cell Signaling #7074) in 0.2% BSA/TBS-T was added and incubated for 1 hour at room temperature. Chemiluminescent detection was carried out with SuperSignal ELISA Pico substrate (ThermoScientific #37069). Signal was read on EnVision plate reader using built-in UltraLUM setting. Data Analysis. Control cells treated with EGF were set to 100% maximum response. […] With these parameters, the IC50's for each compound in each cell line was calculated using non-linear curve fitting analysis.
Background: ELISA stands for enzyme-linked immunosorbent assay.

The target of test [6] is H3255 (EGFR L858R) (Homo sapiens, UniProt P00533, L858R). Put plainly: EGFR target modulation in H3255 cell line (phospho-EGFR Y1173 ELISA). The format is cell-based. On the procedure:
as §2

Test [7] has as its target HEKn (EGFR WT) (Homo sapiens, UniProt P00533). Put plainly: EGFR target modulation in HEKn (EGFR-WT) cell line (phospho-EGFR Y1173 ELISA). The conditions noted are these: value outside parentheses. The class given is cell-based. The protocol: EGFR Target Modulation in HEKn (EGFR-WT) Cell Line Tissue Culture. Human neonatal epithelial keratinocytes (Invitrogen #C-001-5C) were maintained in EpiLife media (Invitrogen #[…]) supplemented with growth factors (Invitrogen #S-001-5). Cells were harvested with 0.05% Trypsin/EDTA (Hyclone #SH30236.01) and quenched with 5% FBS/EpiLife media. […] The serial diluted compounds were transferred to the plate containing cells by using a 50 nl Pin Head device (Perkin Elmer) and the cells were placed back in the incubator for 3 hours. […] Phospho-EGFR (Y1173) ELISA. Solid white high-binding ELISA plates (Greiner #781074) were coated with 5 ug/ml anti-EGFR capture antibody (R&D Systems #AF231) overnight in 50 mM carbonate/bicarbonate pH 9.5 buffer. […] Wash steps were carried out with a Bio-Tek ELx405 SelectTM using 4 cycles of 100 ul TBS-T (20 mM Tris, 137 mM NaCl, 0.05% Tween-20) per well. […] Lysis was allowed to occur for 20 minutes on ice. A 25 ul aliquot was added to each well of the blocked ELISA plate and incubated overnight at 4° C. with gentle shaking. […] After washing, 1:2,000 anti-rabbit-HRP (Cell Signaling #7074) in 0.2% BSA/TBS-T was added and incubated for 1 hour at room temperature. Chemiluminescent detection was carried out with SuperSignal ELISA Pico substrate (ThermoScientific #37069). Signal was read on EnVision plate reader using built-in UltraLUM setting. Data Analysis. Control cells treated with EGF were set to 100% maximum response. […] With these parameters, the IC50's for each compound in each cell line was calculated using non-linear curve fitting analysis.

The mark [8] stands for this setting: EGFR (L858R/T790M) with 90 min pre-incubation, read-out: IC50 (μM) Column B.
Where [9] appears, read: EGFR (L858R/T790M) with no pre-incubation, read-out: IC50 (μM) Column A.

Molecules are shown by their SMILES. Like-named read-outs stand apart in the source and are kept apart here.

human EGFR L858R (NIH/3T3 cells), sequence (P00533 25-1210 L858R): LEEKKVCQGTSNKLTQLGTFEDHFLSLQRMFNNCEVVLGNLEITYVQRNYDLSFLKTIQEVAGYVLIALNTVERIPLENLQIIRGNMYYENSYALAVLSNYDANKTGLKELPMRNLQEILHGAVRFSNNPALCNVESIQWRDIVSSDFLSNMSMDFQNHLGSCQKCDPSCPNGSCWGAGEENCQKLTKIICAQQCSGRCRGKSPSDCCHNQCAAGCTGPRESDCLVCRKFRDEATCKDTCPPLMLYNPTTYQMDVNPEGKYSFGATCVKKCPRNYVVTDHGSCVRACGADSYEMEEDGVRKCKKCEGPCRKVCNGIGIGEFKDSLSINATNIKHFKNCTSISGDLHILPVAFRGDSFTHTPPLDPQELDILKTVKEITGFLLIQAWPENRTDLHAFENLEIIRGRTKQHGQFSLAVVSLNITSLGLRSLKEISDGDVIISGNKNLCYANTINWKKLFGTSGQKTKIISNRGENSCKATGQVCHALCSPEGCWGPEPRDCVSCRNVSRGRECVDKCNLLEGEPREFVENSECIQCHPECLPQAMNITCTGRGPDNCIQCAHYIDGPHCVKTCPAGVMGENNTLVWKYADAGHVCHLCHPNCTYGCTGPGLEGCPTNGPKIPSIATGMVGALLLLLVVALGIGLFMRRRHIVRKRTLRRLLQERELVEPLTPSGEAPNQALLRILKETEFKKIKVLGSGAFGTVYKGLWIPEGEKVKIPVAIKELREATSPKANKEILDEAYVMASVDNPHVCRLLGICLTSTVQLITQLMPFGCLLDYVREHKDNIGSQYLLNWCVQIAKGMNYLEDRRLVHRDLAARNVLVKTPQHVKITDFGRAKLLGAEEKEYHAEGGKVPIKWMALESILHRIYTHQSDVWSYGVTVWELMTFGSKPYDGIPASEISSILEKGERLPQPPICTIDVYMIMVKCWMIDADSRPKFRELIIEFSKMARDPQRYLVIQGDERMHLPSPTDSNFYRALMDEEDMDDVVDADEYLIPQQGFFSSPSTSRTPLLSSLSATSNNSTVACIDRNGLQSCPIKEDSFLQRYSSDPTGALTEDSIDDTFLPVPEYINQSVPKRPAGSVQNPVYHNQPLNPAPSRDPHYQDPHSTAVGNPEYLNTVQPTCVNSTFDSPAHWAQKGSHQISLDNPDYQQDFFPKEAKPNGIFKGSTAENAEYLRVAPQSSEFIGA
H3255 (EGFR L858R), sequence (P00533 25-1210 L858R): as above
T1 sequence (P00533 669-1210 T790M/L858R): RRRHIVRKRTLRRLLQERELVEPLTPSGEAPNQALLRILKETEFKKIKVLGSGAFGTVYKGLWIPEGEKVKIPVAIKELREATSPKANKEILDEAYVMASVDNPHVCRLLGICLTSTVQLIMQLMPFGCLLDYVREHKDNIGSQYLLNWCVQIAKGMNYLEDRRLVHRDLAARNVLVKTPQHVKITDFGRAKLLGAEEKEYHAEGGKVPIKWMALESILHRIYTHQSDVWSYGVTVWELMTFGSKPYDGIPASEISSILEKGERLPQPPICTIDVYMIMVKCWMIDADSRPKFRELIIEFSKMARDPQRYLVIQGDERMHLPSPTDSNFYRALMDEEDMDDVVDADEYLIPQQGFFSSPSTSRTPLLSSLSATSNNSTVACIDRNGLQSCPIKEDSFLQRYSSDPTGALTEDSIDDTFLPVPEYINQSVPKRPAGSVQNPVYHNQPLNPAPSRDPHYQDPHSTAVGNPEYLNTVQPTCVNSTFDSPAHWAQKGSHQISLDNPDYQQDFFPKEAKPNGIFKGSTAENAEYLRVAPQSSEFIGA

Take `C=CC(=O)N1CCC[C@@H](n2c(NC(=O)c3cccc(C(F)(F)F)c3)nc3cc(CN4CCCCC4)ccc32)C1` [Example 17-118]: the IC50 in test [1] (setting [8]) is 0.005 µM; in test [1] (setting [9]), 0.68 µM; in test [2], above 10 µM; in test [3], 0.156 µM; in test [4], 0.005 µM; in test [5], 640 nM. In addition, the IC50 in test [6] and in test [7] was above 10000 nM throughout.

With `C=CC(=O)N1CCC[C@@H](n2c(NC(=O)c3ccccc3)nc3cccc(C)c32)C1` [Example 17-108], the IC50 in test [1] (setting [8]) is 0.005 µM; in test [1] (setting [9]), 0.048 µM; in test [2], above 10 µM; in test [3], 0.306 µM; in test [4], 0.021 µM; in test [5], 14 nM. For the same compound, the IC50 in test [6] is 44 nM; in test [7], above 10000 nM.

Regarding `CC(C)Oc1cccc2nc(NC(=O)c3ccnnc3)n([C@@H]3CCCCN(C(=O)/C=C/CN(C)C)C3)c12` [Example 17-85], the IC50 in test [1] (setting [8]) was found to be 0.003 µM; in test [1] (setting [9]) it was 0.038 µM; in test [2], 0.6 µM; in test [3], 0.043 µM; in test [4] it was 0.02 µM; in test [5], 38 nM. Further, the IC50 came to 111 nM in test [6] and 2080 nM in test [7].

`C=CC(=O)N1CCC[C@@H](n2c(NC(=O)c3cccc(C(F)(F)F)c3)nc3cc(C(N)=O)ccc32)C1` [Example 19, (R)-1-(1-acryloylpiperidin-3-yl)-2-(3-(trifluoromethyl)benzamido)-1H-benzo[d]imidazole-5-carboxamide]: the IC50 is 0.01 µM in test [1] (setting [8]); 0.218 µM in test [1] (setting [9]); above 10 µM in test [2]; 0.226 µM in test [3]; 0.026 µM in test [4]; 168 nM in test [5]. In addition, the figures for the IC50 in test [6] and in test [7] were 2020 nM and above 10000 nM, respectively.

`C=CC(=O)N1CCCC[C@@H](n2c(NC(=O)c3ccnnc3)nc3cccc(OC)c32)C1` [Example 17-84]: the IC50 in test [1] (setting [8]) was found to be 0.003 µM; in test [1] (setting [9]), 0.049 µM; in test [2] it was 1.94 µM; in test [3] it was 0.04 µM; in test [4], 0.028 µM; in test [5], 37 nM. Moreover, the IC50 in test [6] was 137 nM; in test [7], 1660 nM.

On to `Cc1cccc2nc(NC(=O)c3cccc(C(F)(F)F)c3)n(C3CCCCN(C(=O)/C=C/CN(C)C)C3)c12` (stereo not shown) [Example 17-25], for which the IC50 in test [1] (setting [8]) is below 0.001 µM; in test [1] (setting [9]), below 0.002 µM; in test [2], 0.057 µM; in test [3], 0.002 µM; in test [4], below 0.001 µM; in test [5], 2 nM. The figures for the IC50 in test [6] and in test [7] were 26 nM and 251 nM, respectively.

For `Cc1ccccc1-c1cc(C(=O)Nc2nc3cccc(C)c3n2[C@@H]2CCCCN(C(=O)/C=C/CN(C)C)C2)ccn1` [Example 17-80], the IC50 in test [1] (setting [8]) was below 0.001 µM; in test [1] (setting [9]), below 0.001 µM; in test [2] it was 0.002 µM; in test [3], below 0.001 µM; in test [4], below 0.001 µM; in test [5], below 1 nM. In addition, the IC50 in test [6] is below 1 nM; in test [7], 4 nM.

As for `C=CC(=O)N1CCCC[C@@H](n2c(NC(=O)c3ccccc3)nc3cccc(CN4CCC(O)C4)c32)C1` (stereo partly shown) [Example 17-114], the IC50 is below 0.001 µM in test [1] (setting [8]); 0.001 µM in test [1] (setting [9]); 0.143 µM in test [2]; 0.002 µM in test [3]; below 0.001 µM in test [4]; below 1 nM in test [5]. For the same compound, the IC50 was 4 nM in test [6] and 100 nM in test [7].

As for `COc1cc(C(=O)Nc2nc3cccc(C)c3n2[C@@H]2CCCCN(C(=O)/C=C/CN(C)C)C2)cc(Cl)n1` [Example 17-75], the IC50 in test [1] (setting [8]) was below 0.001 µM; in test [1] (setting [9]), 0.017 µM; in test [2], 0.218 µM; in test [3] it was 0.025 µM; in test [4] it was 0.007 µM; in test [5] it was 26 nM. Further, the results for the IC50 in test [6] and in test [7] were 85 nM and 3140 nM, respectively.

Turning to `Cc1cccc2nc(NC(=O)c3ccnnc3)n(C3CCCCN(C(=O)/C=C/CN(C)C)C3)c12` (stereo not shown) [Example 17-24], the IC50 in test [1] (setting [8]) is below 0.001 µM; in test [1] (setting [9]), 0.006 µM; in test [2], 0.094 µM; in test [3], 0.005 µM; in test [4] it was 0.006 µM; in test [5], 7 nM. The IC50 in test [6] came out at 9 nM; in test [7], 225 nM.

On to `Cc1cccc2nc(NC(=O)c3ccc(C(F)(F)F)nc3)n(C3CCCCN(C(=O)/C=C/CN(C)C)C3)c12` (stereo not shown) [Example 17-46], for which the IC50 in test [1] (setting [8]) amounted to 0.005 µM; in test [1] (setting [9]) it was 0.092 µM; in test [2], 0.057 µM; in test [3], 0.002 µM; in test [4], 0.031 µM; in test [5] it was 132 nM. Further, the IC50 amounted to 5 nM in test [6] and 212 nM in test [7].

In the case of `Cc1cccc2nc(NC(=O)c3cncc(C(F)(F)F)c3)n([C@@H]3CCCCN(C(=O)/C=C/CN(C)C)C3)c12` [Example 17-67], the IC50 in test [1] (setting [8]) was below 0.001 µM; in test [1] (setting [9]), 0.003 µM; in test [2] it was 0.05 µM; in test [3], 0.004 µM; in test [4] it was 0.001 µM; in test [5], 2 nM. Further, the IC50 in test [6] turned out to be 15 nM; in test [7], 249 nM.

In the case of `Cc1cccc2nc(NC(=O)c3cccc(-n4cnnn4)c3)n(C3CCCCN(C(=O)/C=C/CN(C)C)C3)c12` (stereo not shown) [Example 17-53], the IC50 is below 0.001 µM in test [1] (setting [8]); 0.002 µM in test [1] (setting [9]); 0.058 µM in test [2]; 0.003 µM in test [3]; 0.002 µM in test [4]; 2 nM in test [5]. Further, the IC50 in test [6] was found to be 4 nM; in test [7] it was 261 nM.

As to `COc1ccc(C(=O)Nc2nc3cccc(C)c3n2C2CCCCN(C(=O)/C=C/CN(C)C)C2)cn1` (stereo not shown) [Example 17-45], the IC50 in test [1] (setting [8]) was below 0.001 µM; in test [1] (setting [9]), 0.006 µM; in test [2], 0.057 µM; in test [3], 0.002 µM; in test [4] it was 0.003 µM; in test [5], 7 nM. For the same compound, the values for the IC50 in test [6] and in test [7] were 3 nM and 142 nM, respectively.

Values taken from patent US9440957B2, “Compounds and compositions for modulating EGFR Activity” (Novartis AG, priority 2012, dated 2016).
